From patent US5563172A, “Macrocyclic amide and urea immunomodulators” (Abbott Laboratories, priority 1994, dated 1996)

test system: human mixed lymphocyte reaction (MLR); test: human mixed lymphocyte reaction (MLR) assay, immunosuppressant activity; format: cell-based; conditions: Table 1
Method: The immunosuppressant activity of the compounds of the present invention was determined using the human mixed lymphocyte reaction (MLR) assay described by Kino, T. et al. in Transplantation Proceedings, XIX(5):36-39,Suppl. 6 (1987).

Row | IC50 [nM] | SMILES
1 | 0.9 | CCOC(=O)COC1CCC(C=C(C)C2OC(=O)C3CCCCN3C(=O)C(=O)C3(O)OC(C(OC)CC(C)CC(C)=CC(CC)C(=O)CC(O)C2C)C(OC)CC3C)CC1OC (centres unmarked) [Example 1]
2 | 7.6 | CCC1C=C(C)CC(C)CC(OC)C2OC(O)(C(=O)C(=O)N3CCCCC3C(=O)OC(C(C)=CC3CCC(OCC(=O)OCc4ccccc4)C(OC)C3)C(C)C(O)CC1=O)C(C)CC2OC (centres unmarked) [Example 2]
3 | 140 | CCC1C=C(C)CC(C)CC(OC)C2OC(O)(C(=O)C(=O)N3CCCCC3C(=O)OC(C(C)=CC3CCC(OCC(=O)O)C(OC)C3)C(C)C(O)CC1=O)C(C)CC2OC (centres unmarked) [Example 3]
4 | 0.5 | CCC1C=C(C)CC(C)CC(OC)C2OC(O)(C(=O)C(=O)N3CCCCC3C(=O)OC(C(C)=CC3CCC(OCC(=O)NCc4ccccc4)C(OC)C3)C(C)C(O)CC1=O)C(C)CC2OC (centres unmarked) [Example 4]
5 | 0.1 | CCC1C=C(C)CC(C)CC(OC)C2OC(O)(C(=O)C(=O)N3CCCCC3C(=O)OC(C(C)=CC3CCC(OCC(N)=O)C(OC)C3)C(C)C(O)CC1=O)C(C)CC2OC (centres unmarked) [Example 6]
6 | 0.7 | CCC1C=C(C)CC(C)CC(OC)C2OC(O)(C(=O)C(=O)N3CCCCC3C(=O)OC(C(C)=CC3CCC(OCC(=O)N4CCOCC4)C(OC)C3)C(C)C(O)CC1=O)C(C)CC2OC (centres unmarked) [Example 29]
7 | 1.1 | CCC1C=C(C)CC(C)CC(OC)C2OC(O)(C(=O)C(=O)N3CCCCC3C(=O)OC(C(C)=CC3CCC(OCC(=O)NCCCO)C(OC)C3)C(C)C(O)CC1=O)C(C)CC2OC (centres unmarked) [Example 31]
8 | 173 | CCC1C=C(C)CC(C)CC(OC)C2OC(O)(C(=O)C(=O)N3CCCCC3C(=O)OC(C(C)=CC3CCC(OCC(=O)NCC(=O)O)C(OC)C3)C(C)C(O)CC1=O)C(C)CC2OC (centres unmarked) [Example 39]
9 | 0.3 | CCC1C=C(C)CC(C)CC(OC)C2OC(O)(C(=O)C(=O)N3CCCCC3C(=O)OC(C(C)=CC3CCC(OCC(=O)NN4CCOCC4)C(OC)C3)C(C)C(O)CC1=O)C(C)CC2OC (centres unmarked) [Example 51]
10 | 0.2 | CCC1C=C(C)CC(C)CC(OC)C2OC(O)(C(=O)C(=O)N3CCCCC3C(=O)OC(C(C)=CC3CCC(OCC(=O)Nc4ccc(C(F)(F)F)cc4)C(OC)C3)C(C)C(O)CC1=O)C(C)CC2OC (centres unmarked) [Example 53]
11 | 0.02 | CCC1C=C(C)CC(C)CC(OC)C2OC(O)(C(=O)C(=O)N3CCCCC3C(=O)OC(C(C)=CC3CCC(OCC(=O)Nc4ccc(F)cc4)C(OC)C3)C(C)C(O)CC1=O)C(C)CC2OC (centres unmarked) [Example 54]
12 | 0.1 | CCC1C=C(C)CC(C)CC(OC)C2OC(O)(C(=O)C(=O)N3CCCCC3C(=O)OC(C(C)=CC3CCC(OCC(=O)Nc4cccnc4)C(OC)C3)C(C)C(O)CC1=O)C(C)CC2OC (centres unmarked) [Example 57]
13 | 0.15 | CCC1C=C(C)CC(C)CC(OC)C2OC(O)(C(=O)C(=O)N3CCCCC3C(=O)OC(C(C)=CC3CCC(OCC(=O)Nc4ccncc4)C(OC)C3)C(C)C(O)CC1=O)C(C)CC2OC (centres unmarked) [Example 58]
14 | 0.05 | CCC1C=C(C)CC(C)CC(OC)C2OC(O)(C(=O)C(=O)N3CCCCC3C(=O)OC(C(C)=CC3CCC(OCC(=O)Nc4ccccn4)C(OC)C3)C(C)C(O)CC1=O)C(C)CC2OC (centres unmarked) [Example 59]
15 | 0.1 | CCC1C=C(C)CC(C)CC(OC)C2OC(O)(C(=O)C(=O)N3CCCCC3C(=O)OC(C(C)=CC3CCC(OCC(=O)NNC(=O)c4ccncc4)C(OC)C3)C(C)C(O)CC1=O)C(C)CC2OC (centres unmarked) [Example 71]
16 | 0.08 | CCC1C=C(C)CC(C)CC(OC)C2OC(O)(C(=O)C(=O)N3CCCCC3C(=O)OC(C(C)=CC3CCC(OCC(=O)Nc4cccc(F)c4)C(OC)C3)C(C)C(O)CC1=O)C(C)CC2OC (centres unmarked) [Example 72]
17 | 0.04 | CCC1C=C(C)CC(C)CC(OC)C2OC(O)(C(=O)C(=O)N3CCCCC3C(=O)OC(C(C)=CC3CCC(OCC(=O)Nc4cccc(O)c4)C(OC)C3)C(C)C(O)CC1=O)C(C)CC2OC (centres unmarked) [Example 73]
18 | 0.06 | CCC1C=C(C)CC(C)CC(OC)C2OC(O)(C(=O)C(=O)N3CCCCC3C(=O)OC(C(C)=CC3CCC(OCC(=O)N4CCN(C)CC4)C(OC)C3)C(C)C(O)CC1=O)C(C)CC2OC (centres unmarked) [Example 74]
19 | 0.3 | CCC1C=C(C)CC(C)CC(OC)C2OC(O)(C(=O)C(=O)N3CCCCC3C(=O)OC(C(C)=CC3CCC(OCC(=O)NCCc4ccccc4)C(OC)C3)C(C)C(O)CC1=O)C(C)CC2OC (centres unmarked) [Example 82]
20 | 0.4 | CCC1C=C(C)CC(C)CC(OC)C2OC(O)(C(=O)C(=O)N3CCCCC3C(=O)OC(C(C)=CC3CCC(OCC(=O)N(C)CCc4ccccc4)C(OC)C3)C(C)C(O)CC1=O)C(C)CC2OC (centres unmarked) [Example 83]
21 | 0.5 | CCC1C=C(C)CC(C)CC(OC)C2OC(O)(C(=O)C(=O)N3CCCCC3C(=O)OC(C(C)=CC3CCC(OCC(=O)Nc4ccccc4)C(OC)C3)C(C)C(O)CC1=O)C(C)CC2OC (centres unmarked) [Example 85]
22 | 1.1 | CCC1C=C(C)CC(C)CC(OC)C2OC(O)(C(=O)C(=O)N3CCCCC3C(=O)OC(C(C)=CC3CCC(OCC(=O)NCCCN4CCOCC4)C(OC)C3)C(C)C(O)CC1=O)C(C)CC2OC (centres unmarked) [Example 87]
23 | 0.1 | CCC1C=C(C)CC(C)CC(OC)C2OC(O)(C(=O)C(=O)N3CCCCC3C(=O)OC(C(C)=CC3CCC(OCC(=O)NCCN(C)C)C(OC)C3)C(C)C(O)CC1=O)C(C)CC2OC (centres unmarked) [Example 88]
24 | 0.5 | CCC1C=C(C)CC(C)CC(OC)C2OC(O)(C(=O)C(=O)N3CCCCC3C(=O)OC(C(C)=CC3CCC(OCC(=O)NCCCN(C)C)C(OC)C3)C(C)C(O)CC1=O)C(C)CC2OC (centres unmarked) [Example 89]
25 | 1.8 | CCC1C=C(C)CC(C)CC(OC)C2OC(O)(C(=O)C(=O)N3CCCCC3C(=O)OC(C(C)=CC3CCC(OCNC(=O)N4CCOCC4)C(OC)C3)C(C)C(O)CC1=O)C(C)CC2OC (centres unmarked) [Example 111]
26 | 0.1 | CCC1C=C(C)CC(C)CC(OC)C2OC(O)(C(=O)C(=O)N3CCCCC3C(=O)OC(C(C)=CC3CCC(OCNC(=O)Nc4ccccc4)C(OC)C3)C(C)C(O)CC1=O)C(C)CC2OC (centres unmarked) [Example 112]
